Results published in patent US20140315786A1, “USE OF INTRACELLULAR ENZYMES FOR THE RELEASE OF COVALENTLY LINKED BIOACTIVES” (Catabasis Pharmaceuticals, Inc., priority 2011, published 2014).

System: IL-1β
Assay: IL-1β transcript levels in LPS-stimulated RAW264.7 macrophages
Format: cell-based
Settings: Mus musculus; RAW264.7, LPS 100 ng/ml; linked bioactive
Experimental: RAW264.7 macrophages were seeded at a density of 100,000 cells/well in a 96-well plate in DMEM supplemented with 10% FBS and penicillin:streptomycin. 16 hours later, medium was aspirated and replaced with 90 μL/well of serum-free DMEM. Linked bioactives were brought up in 100% ethanol to a concentration of 100 mM and then diluted 1:100 in 100% FBS for a stock solution consisting of 1 mM compound and 1% ethanol. These stock solutions were then diluted 1:10 in FBS supplemented with 1% ethanol to generate a 100 μM of the linked bioactives. 10 μL was then added to the RAW246.7 cells to generate final concentrations 10 μM of the linked bioactives or 10 μM each bioactive, along with vehicle only control. The linked bioactives were allowed to pre-incubate for 2 hours before stimulation of 100 ng/ml LPS (10 μL of 1 μg/ml LPS was added to each well). Following 3 hours of LPS stimulation, cells were washed once in 1×PBS, aspirated dry, and flash frozen in liquid nitrogen. RNA was then isolated and converted to cDNA using the Cells to cDNA kit (AMBION®) according to the manufacturer's protocol. IL-1β transcript levels were then measured using Taqman primer/probe assay sets (APPLIED BIOSYSTEMS®), normalized to GAPDH using the deltaCt method, and the data expressed relative to vehicle only control.

- IC50: 10 µM
SMILES: CC/C=C\C/C=C\C/C=C\C/C=C\C/C=C\C/C=C\CCC(=O)N[C@@H](C)C(=O)O[C@H](C)[C@H](NC(=O)CC/C=C\C/C=C\C/C=C\C/C=C\C/C=C\C/C=C\CC)C(=O)OC [VI-2, (2S,3R)-2-((4Z,7Z,10Z,13Z,16Z,19Z)-docosa-4,7,10,13,16,19-hexaenoylamino)-3-[(S)-2-((4Z,7Z,10Z,13Z,16Z,19Z)-docosa-4,7,10,13,16,19-hexaenoylamino)-propionyloxy]-butyric acid methyl ester]
